Measured values as given in patent US9790218B2, “Small molecule activators of calcium-activated chloride channels and methods of use” (The Regents of the University of California, priority 2011, dated 2017).
Read-outs that look alike come from different tables or passages of the source. Values belong to the molecule of their own block, whether it stands above or below them.

Experiments:
TMEM16A [1] = target: T1, TMEM16A (Homo sapiens, UniProt Q5XXA6, DEL476-501); test: Fluorescence plate reader assay of TMEM16A-mediated I^− influx (YFP halide sensor); assay type: cell-based; settings: for EC50 (μM) / EC50: fluorescence plate reader assay; for TMEM16A conductance, F class SAR: synthesized F class analogs; for EC50: read-out: EC50
T1 construct: expressed in transfected cells
T1 sequence (Q5XXA6 with tags, fused parts or gaps isoform Q5XXA6-5 DEL539-564): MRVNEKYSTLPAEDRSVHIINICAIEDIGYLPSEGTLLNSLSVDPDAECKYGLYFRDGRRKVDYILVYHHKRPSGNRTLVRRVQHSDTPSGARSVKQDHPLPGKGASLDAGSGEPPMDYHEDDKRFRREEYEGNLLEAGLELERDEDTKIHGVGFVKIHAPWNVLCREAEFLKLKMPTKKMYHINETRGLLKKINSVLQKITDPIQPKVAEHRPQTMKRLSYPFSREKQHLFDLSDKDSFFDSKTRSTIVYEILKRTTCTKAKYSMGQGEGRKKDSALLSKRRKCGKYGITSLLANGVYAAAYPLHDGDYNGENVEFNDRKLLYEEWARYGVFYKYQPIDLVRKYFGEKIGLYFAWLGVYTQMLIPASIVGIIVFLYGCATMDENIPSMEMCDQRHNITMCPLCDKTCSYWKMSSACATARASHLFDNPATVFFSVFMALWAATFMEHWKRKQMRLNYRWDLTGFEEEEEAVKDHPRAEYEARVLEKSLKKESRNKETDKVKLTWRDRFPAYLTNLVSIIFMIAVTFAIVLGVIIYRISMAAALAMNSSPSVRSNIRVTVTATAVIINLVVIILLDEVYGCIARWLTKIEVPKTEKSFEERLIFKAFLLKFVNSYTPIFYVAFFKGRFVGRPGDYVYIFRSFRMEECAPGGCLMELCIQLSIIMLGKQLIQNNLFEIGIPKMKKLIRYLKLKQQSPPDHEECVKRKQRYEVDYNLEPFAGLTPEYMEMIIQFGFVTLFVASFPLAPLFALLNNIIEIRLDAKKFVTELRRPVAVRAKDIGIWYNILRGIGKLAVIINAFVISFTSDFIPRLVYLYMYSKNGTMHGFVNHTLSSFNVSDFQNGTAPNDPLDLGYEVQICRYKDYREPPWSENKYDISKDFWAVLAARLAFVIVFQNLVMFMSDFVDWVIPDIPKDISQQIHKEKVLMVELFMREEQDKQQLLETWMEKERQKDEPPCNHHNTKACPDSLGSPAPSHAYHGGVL
Description: (§1) FRT cells were stably transfected with human TMEM16A (TMEM16A(abc), cDNA provided by Dr. Luis Galietta, Gaslini Institute, Genoa, Italy) and the halide sensor YFP-H148Q/1152L/F46L. Cells were plated in 96-well black-walled microplates (Corning Inc., Corning, N.Y.) at a density of 20,000 cells per well in Coon's modified F12 medium supplemented with 5% fetal calf serum, 2 mM L-glutamine, 100 U/mL penicillin and 100 μg/mL streptomycin. The human submandibular cell line A253 (ATCC HTB 41) was cultured in complete McCoy's 5A medium supplemented with 10% fetal bovine serum, 100 U/mL penicillin and 100 μg/mL streptomycin.
TMEM16A activators were identified from screening of ˜110,000 synthetic drug-like compounds, purified natural products and approved/investigational drugs. The cell-based screen employs FRT cells coexpressing human TMEM16A and the I^−-sensing yellow fluorescent protein YFP-H148Q/1152L/F46L. FRT cells were chosen because of their low basal I^− and Cl^− transport, rapid growth on uncoated plastic, strong stable expression of transfected proteins, and formation of tight junctions for measurements of transepithelial short-circuit current (Ma et al., supra).
High-throughput screening was done using an automated screening platform (Beckman) equipped with FluoStar fluorescence plate readers (BMG Lab Technologies, Durham, N.C.) as described (Ma et al., supra). Each well of a 96-well plate was washed 3 times with PBS (200 μL/wash), leaving 50 μL PBS. Test compounds (0.5 μL) were added to each well at […]. After 10 min, 96-well plates were transferred to a plate reader for fluorescence assay. Each well was assayed individually for TMEM16A-mediated I^− influx by recording fluorescence continuously (400 ms per point) for 2 s (baseline), then 50 μL of a 140 mM I^− solution was added. The initial rate of I^− influx was computed from fluorescence data by non-linear regression.
As diagrammed in FIG. 1A, test compounds at 25 μM final concentration were added 10 min prior to I^− addition. The 10 min incubation was chosen to allow for compound transport into cytoplasm and to minimize false positives from compounds that elevate cytoplasmic Ca^2+ transiently. Fluorescence from individual wells of 96-well plates was measured just prior to and for 6 s after I^− addition for computation of initial I^− influx rate.

TMEM16A [2] = target: T1, TMEM16A; test: Apical membrane current in TMEM16A-expressing FRT cells; assay type: cell-based; settings: basolateral membrane permeabilized, Cl^− gradient; ATP 100 μM
Description: as §1
Snapwell inserts containing TMEM16A-expressing FRT, HBE, CF HBE or HTG cells were mounted in Ussing chambers (Physiologic Instruments, San Diego, Calif.). Amiloride, CFTRinh-172, UTP, ATP, T16Ainh-A01 and TMEM16A activators were added to the apical solution and an equal volume of vehicle was added at the same time to the basolateral solution. Symmetrical HCO3^−-buffered solutions were used for HBE, CF HBE and HTG cells. For FRT cells, the hemichambers were filled with a half-Cl^− solution (apical) and the HCO3^−-buffered solution (basolateral), and the basolateral membrane was permeabilized with 250 μg/mL amphotericin B, as described (Namkung et al. (2010), supra). Cells were bathed for a 10 min stabilization period and aerated with 95% O2/5% CO2 at 37° C. or room temperature. Apical membrane current (for FRT cells) and short-circuit current were measured using an EVC4000 Multi-Channel V/I Clamp (World Precision Instruments, Sarasota, Fla.) and recorded using PowerLab/8sp (AD Instruments, Castle Hill, Australia).
The current increase was sustained for >10 min (FIG. 2B, inset). […] Data are also shown for a second Fact compound (Fact9, see Table 1) in FIG. 9.

[3] = test system: mouse ileal smooth muscle; test: Intestinal smooth muscle contraction, ex vivo mouse ileal segments; settings: Eact 10 μM, carbachol 1 μM following atropine
Description: FIG. 8A-C. Intestinal smooth muscle contraction. FIG. 8A. Representative traces from mouse ileal segments showing effects of T16Ainh-A01 (10 μM), carbachol (CCh, 1 μM) and Eact (10 μM). FIG. 8B. Effect of CCh (1 μM) and Eact (10 μM) following atropine (1 μM). FIG. 8C. Summary of contraction frequency (left), and resting and maximum tone (right) (mean±S.E., n=4-7, * P<0.05).
Wild type CD1 mice (age 8-10 weeks) were killed by avertin overdose (200 mg/kg). The ileum removed and washed with ice-cold HCO3^−-buffered solution. The ends of the ileal segments were tied with silk thread and connected to a force transducer. Beal segments were equilibrated for 60 min with a resting force of ˜1 mN, with changes of the bathing solution every 15 min. Tension was monitored continuously with a fixed-range precision force transducer (TSD, 125 C; Biopac, Goleta, Calif.) connected to a differential amplifier (DA 100B; Biopac). Data were recorded using MP100, Biopac digital acquisition system and analyzed using Acknowledge 3.5.7 software.
TMEM16A in expressed in the interstitial cells of Cajal, the pacemaker cells that control smooth muscle contraction dynamics in stomach and intestine (Huang et al., supra; Gomez-Pinilla et al. (2009) Am. J. Physiol. Gastrointest. Liver Physiol. 296, G1370-1381). The effect of Eact on mouse ileal smooth muscle contraction was investigated using an ex vivo intestinal preparation. […] Without wishing to be bound by theory, the constitutive TMEM16A activity in this ex vivo preparation could obscure Eact activity. To reveal Eact effects, atropine was first added to inhibit basal contractions. […] FIG. 8C summarizes data on contraction frequency, resting tone and maximal tone.

SMILES: O=C(Nc1ccc(Cl)cc1)c1cccc(-n2cnnn2)c1 [4-chlorophenyl]
EC50 (μM) (TMEM16A [1]; Fact analogs): inactive
TMEM16A conductance, F class SAR (TMEM16A [1]): low activity

SMILES: COc1ccc(CC(=O)N(Cc2ccncc2)c2nc(-c3ccccc3)cs2)c(OC)c1OC [(pyrid-4-yl)methyl / phenyl, N-(4-pyridylmethyl)-N-(4-phenyl-2-thiazolyl)-2,3,4-trimethoxybenzeneacetamide]
EC50 (TMEM16A [1]; Eact analogs): 2 µM

SMILES: Nc1ncnc2c1ncn2[C@@H]1O[C@H](COP(=O)(O)OP(=O)(O)OP(=O)(O)O)[C@@H](O)[C@H]1O [ATP, reference compound]
Cl^− current (apical membrane current) (TMEM16A [2]): large but transient elevation in Cl^− current

SMILES: CN1[C@@H]2CC[C@H]1C[C@@H](OC(=O)C(CO)c1ccccc1)C2 (stereo partly drawn) [atropine]
contraction after atropine (1 μM) [3]: prevented the carbachol effect

SMILES: COc1ccc(-c2csc(N(Cc3ccccc3)C(=O)c3cc(OC)c(OC)c(OC)c3)n2)cc1 [benzyl / 4-methoxyphenyl]
EC50 (TMEM16A [1]; Eact analogs): 4 µM

Next, values leading:

EC50 (μM) (TMEM16A [1]; Fact analogs): inactive
SMILES: O=C(Nc1ccccc1Br)c1cccc(-n2cnnn2)c1 [2-bromophenyl]

EC50 (μM) (TMEM16A [1]; Fact analogs): inactive
SMILES: O=C(Nc1cccc(Br)c1)c1cccc(-n2cnnn2)c1 [3-bromophenyl]

EC50 (μM) (TMEM16A [1]; Fact analogs): inactive
TMEM16A conductance, F class SAR (TMEM16A [1]): low activity
SMILES: CN(C)c1ccc(NC(=O)c2cccc(-n3cnnn3)c2)cc1 [4-(N,N-dimethylamino)phenyl]

EC50 (TMEM16A [1]; Fact analogs): 55 µM
SMILES: O=C(Nc1ccc(Br)c(C(F)(F)F)c1)c1cccc(-n2cnnn2)c1 [4-bromo-3-trifluoromethylphenyl]

EC50 (μM) (TMEM16A [1]; Fact analogs): inactive
TMEM16A conductance, F class SAR (TMEM16A [1]): low activity
SMILES: O=C(Nc1ccc([N+](=O)[O-])cc1)c1cccc(-n2cnnn2)c1 [4-nitrophenyl]

EC50 (TMEM16A [1]; Fact analogs): 11 µM
Cl^− current (apical membrane current) (TMEM16A [2]): stimulated TMEM16A Cl^− current
SMILES: CC(C)c1ccc(NC(=O)c2cccc(-n3cnnn3)c2)cc1 [Fact9, N-(4-isopropylphenyl)-3-(1H-tetrazol-1-yl)benzamide]
